Like-named read-outs stand apart in the source and are kept apart here.

The target of one series is T1, β1-40 amyloid fibrils (Homo sapiens, UniProt P05067).
T1 construct: Aggregated β1-40 peptides (Bachem, Torrance, Calif); purchased Bachem, Torrance, Calif
Description: Competitive displacement of labeled complexes 3 or 6 from β1-40 fibrils. Type of series: binding. The settings on record: 25° C., pH 7.4, mean (±S.D.). The protocol:
Dissociation constants, IC50 and inhibition constants were determined. Aggregated β1-40 peptides (Bachem, Torrance, Calif.; peptide concentrations were determined by amino acid analysis) were prepared by stirring supersaturated solutions of peptide (100 μM) in the standard buffer (10 mM NaH2 PO4, pH 7.4) at room temperature for at least 72 h and remained stirring while aliquots were taken. […] The solution was briefly vortexed and allowed to equilibrate at room temperature for 2 h. The solution was centrifuged for 1 min at 14,000 rpm (16,000 g) and the amount of the labeled ligand bound ([B]) to fibrils was obtained by measuring the radioactivity of the pellets or calculated using the equation [B] =[T] - [F] where [F] is the concentration of the labeled ligand in the supernatant (i.e., amount unbound or free) and [T] is the total amount of the labeled ligand added. A Scatchard plot was used to obtain [B]max (apparent maximum amount of the labeled ligand bound to fibrils) and Kd. (Freifelder, D., Physical Biochemistry: Applications to Biochemistry and Molecular Biology, 2nd ed.; W. H. Freeman & Co., N. Y. Chapter 10, p. 654 (1982)). The [B]max was based on total protein concentration. […] The IC50 value was used to calculate the inhibition constant Ki. (Cheng et al., Biochem. Pharmacol. 22:3099-3108 (1973)).
The relative affinities (Ki 's) of the free bipyridyl ligands were determined by displacement of complexes 3 or 6 (see Table 1). […] The stoichiometry of saturation, as estimated by Scatchard analysis of the binding curves, differed slightly, with 2.7 moles of 3 and 1.6 moles of 6 bound per mole of β1-40.

The next series is described as follows: Peptide solubility. In kind it is physicochemical. The settings on record: 10 mm nah2po4 buffer, pH 7.4.
[1] abbreviates: [Tc(CNtBu)4 (bpcg)]^+ (6) as labeled ligand, read-out: Inhibition constant (Ki) for β1-40 fibrils.
The mark [2] stands for this setting: [Tc(CNtBu)4 (bpcr)]^+ (3) as labeled ligand, read-out: Inhibition constant (Ki) for β1-40 fibrils.

T1 sequence (P05067 672-711 limits assumed): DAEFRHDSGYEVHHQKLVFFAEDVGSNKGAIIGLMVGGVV

With `Nc1c(N=Nc2ccc(-c3ccc(N=Nc4cc(S(=O)(=O)O)c5ccccc5c4N)cn3)nc2)cc(S(=O)(=O)O)c2ccccc12` [compound 2, Bipyridyl-Congo Red], the Ki – broadly, a dissociation constant, usually derived from enzyme kinetics or from competition with a known ligand – at β1-40 amyloid fibrils (setting [1]) was 480 nM; at β1-40 amyloid fibrils (setting [2]), 510 nM.

Turning to `Nc1c(/N=N/c2ccc(-c3ccc(/N=N/c4cc(S(=O)(=O)O)c5ccccc5c4N)cc3)cc2)cc(S(=O)(=O)O)c2ccccc12` [Congo Red (1), Congo Red, reference compound], the Ki at β1-40 amyloid fibrils (Inhibition constant (Ki) for β1-40 fibrils, [Tc(CNtBu)4 (bpcg)]^+ (6) as labeled ligand) was determined as 560 nM; on β1-40 amyloid fibrils (Inhibition constant (Ki) for β1-40 fibrils, [Tc(CNtBu)4 (bpcr)]^+ (3) as labeled ligand), 460 nM.

“β1-40: β1-40 amyloid peptide (Bachem), C-terminally truncated relative of Aβ1-42”: the solubility result in “Peptide solubility” is recorded as “ca. 1 μM”.

As for `O=C(O)c1cc(N=Nc2ccc(-c3ccc(N=Nc4ccc(O)c(C(=O)O)c4)cn3)nc2)ccc1O` [compound 5, bipyridal-Chrysamine G], the figures for the Ki at β1-40 amyloid fibrils (setting [1]) and at β1-40 amyloid fibrils (setting [2]) were 420 nM and 760 nM, respectively.

(Values after patent US6054114A, “Organometallic ligands for the localization and quantification of amyloid in vivo and in vitro” (priority 1997, dated 2000).)
